pIC50: −log10 of the molar value.
Tested on: 521955-158-R6-J3-PDC complex spheroid growth, % test/control
Test: Anticancer human tumor 521955-158-R6-J3-PDC patient-derived pancreatic carcinoma cell line growth inhibition [Asc]
Conditions: for pIC50: curve of first compound; for viability, T/C: stronger effect = lower value
How it was run: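 Spheroid model: tumor line + HUVEC + hMSC. Single agents and combinations; top conc. at/near clinical Cmax (10 microM if undetermined), half-log dilutions. DMSO stocks at 800-fold test concentration.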

[1] = second compound 0.00949 µM, first compound 0.0316 µM
[2] = second compound 0.00949 µM, first compound 0.1 µM
[3] = second compound 0.00949 µM, first compound 0.316 µM
[4] = second compound 0.00949 µM, first compound 1 µM
[5] = second compound 0.03 µM, first compound 0.0316 µM
[6] = second compound 0.03 µM, first compound 0.1 µM
[7] = second compound 0.03 µM, first compound 0.316 µM
[8] = second compound 0.03 µM, first compound 1 µM
[9] = second compound 0.0949 µM, first compound 0.0316 µM
[10] = second compound 0.0949 µM, first compound 0.1 µM
[11] = second compound 0.0949 µM, first compound 0.316 µM
[12] = second compound 0.0949 µM, first compound 1 µM
[13] = second compound 0.3 µM, first compound 0.0316 µM
[14] = second compound 0.3 µM, first compound 0.1 µM
[15] = second compound 0.3 µM, first compound 0.316 µM
[16] = second compound 0.3 µM, first compound 1 µM
[17] = second compound 0.949 µM, first compound 0.0316 µM
[18] = second compound 0.949 µM, first compound 0.1 µM
[19] = second compound 0.949 µM, first compound 0.316 µM
[20] = second compound 0.949 µM, first compound 1 µM
[21] = second compound 3 µM, first compound 0.0316 µM
[22] = second compound 3 µM, first compound 0.1 µM
[23] = second compound 3 µM, first compound 0.316 µM
[24] = second compound 3 µM, first compound 1 µM
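Also: spheroids exposed to compounds for 7 days.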
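For viability, T/C in this document: 100% = DMSO vehicle control wells.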

SMILES: O=C(c1cc(Cc2n[nH]c(=O)c3ccccc23)ccc1F)N1CCN(C(=O)C2CC2)CC1 + CCN1C(C(=O)NC23CCC(C(=O)O)(CC2)CC3)C(c2cccc(Cl)c2F)C2(C(=O)Nc3cc(Cl)ccc32)C12CCCCC2
- pIC50 (second compound 0.00949 µM): < 5.00
- pIC50 (second compound 0.03 µM): < 5.00
- pIC50 (second compound 0.0949 µM): < 5.00
- pIC50 (second compound 0.3 µM): < 5.00
- pIC50 (second compound 0.949 µM): < 5.00
- pIC50 (second compound 3 µM): < 5.00
- viability, T/C [1]: 109%
- viability, T/C [2]: 98.4%
- viability, T/C [3]: 92.4%
- viability, T/C [4]: 83.7%
- viability, T/C (second compound 0.00949 µM, first compound 3.16 µM): 83.4%
- viability, T/C (second compound 0.00949 µM, first compound 10 µM): 89.7%
- viability, T/C [5]: 127%
- viability, T/C [6]: 98.7%
- viability, T/C [7]: 94.2%
- viability, T/C [8]: 108%
- viability, T/C (second compound 0.03 µM, first compound 3.16 µM): 82%
- viability, T/C (second compound 0.03 µM, first compound 10 µM): 88.8%
- viability, T/C [9]: 106%
- viability, T/C [10]: 98.6%
- viability, T/C [11]: 88.6%
- viability, T/C [12]: 101%
- viability, T/C (second compound 0.0949 µM, first compound 3.16 µM): 96.4%
- viability, T/C (second compound 0.0949 µM, first compound 10 µM): 89.8%
- viability, T/C [13]: 113%
- viability, T/C [14]: 110%
- viability, T/C [15]: 135%
- viability, T/C [16]: 90.6%
- viability, T/C (second compound 0.3 µM, first compound 3.16 µM): 89.3%
- viability, T/C (second compound 0.3 µM, first compound 10 µM): 104%
- viability, T/C [17]: 113%
- viability, T/C [18]: 114%
- viability, T/C [19]: 104%
- viability, T/C [20]: 92.1%
- viability, T/C (second compound 0.949 µM, first compound 3.16 µM): 89.2%
- viability, T/C (second compound 0.949 µM, first compound 10 µM): 89%
- viability, T/C [21]: 90.8%
- viability, T/C [22]: 100%
- viability, T/C [23]: 96.5%
- viability, T/C [24]: 94.4%
- viability, T/C (second compound 3 µM, first compound 3.16 µM): 104%
- viability, T/C (second compound 3 µM, first compound 10 µM): 101%

SMILES: CCN1CCN(Cc2ccc(Nc3ncc(F)c(-c4cc(F)c5nc(C)n(C(C)C)c5c4)n3)nc2)CC1 + CCN1C(C(=O)NC23CCC(C(=O)O)(CC2)CC3)C(c2cccc(Cl)c2F)C2(C(=O)Nc3cc(Cl)ccc32)C12CCCCC2
- pIC50 (second compound 0.00949 µM): < 6.00
- pIC50 (second compound 0.03 µM): < 6.00
- pIC50 (second compound 0.0949 µM): < 6.00
- pIC50 (second compound 0.3 µM): < 6.00
- pIC50 (second compound 0.949 µM): < 6.00
- pIC50 (second compound 3 µM): < 6.00
- viability, T/C (second compound 0.00949 µM, first compound 0.00316 µM): 102%
- viability, T/C (second compound 0.00949 µM, first compound 0.01 µM): 90.3%
- viability, T/C [1]: 79.1%
- viability, T/C [2]: 101%
- viability, T/C [3]: 89.1%
- viability, T/C [4]: 88.6%
- viability, T/C (second compound 0.03 µM, first compound 0.00316 µM): 101%
- viability, T/C (second compound 0.03 µM, first compound 0.01 µM): 104%
- viability, T/C [5]: 88.5%
- viability, T/C [6]: 92.2%
- viability, T/C [7]: 92.9%
- viability, T/C [8]: 102%
- viability, T/C (second compound 0.0949 µM, first compound 0.00316 µM): 112%
- viability, T/C (second compound 0.0949 µM, first compound 0.01 µM): 101%
- viability, T/C [9]: 97.4%
- viability, T/C [10]: 95.5%
- viability, T/C [11]: 91.3%
- viability, T/C [12]: 106%
- viability, T/C (second compound 0.3 µM, first compound 0.00316 µM): 106%
- viability, T/C (second compound 0.3 µM, first compound 0.01 µM): 112%
- viability, T/C [13]: 102%
- viability, T/C [14]: 87.8%
- viability, T/C [15]: 93.1%
- viability, T/C [16]: 90.2%
- viability, T/C (second compound 0.949 µM, first compound 0.00316 µM): 108%
- viability, T/C (second compound 0.949 µM, first compound 0.01 µM): 98.5%
- viability, T/C [17]: 109%
- viability, T/C [18]: 93.2%
- viability, T/C [19]: 93.3%
- viability, T/C [20]: 102%
- viability, T/C (second compound 3 µM, first compound 0.00316 µM): 106%
- viability, T/C (second compound 3 µM, first compound 0.01 µM): 101%
- viability, T/C [21]: 91.5%
- viability, T/C [22]: 84.8%
- viability, T/C [23]: 103%
- viability, T/C [24]: 93.2%

SMILES: COc1c(OCCCN2CCOCC2)ccc2c3n(c(=NC(=O)c4cnc(N)nc4)nc12)CCN3 + CNC(C)C(=O)NC1CN(S(=O)(=O)c2cccc(S(=O)(=O)N3CCC4CCC(C(=O)NC(c5ccccc5)c5ccccc5)N4C(=O)C(NC(=O)C(C)NC)C3)c2)CCC2CCC(C(=O)NC(c3ccccc3)c3ccccc3)N2C1=O
- pIC50 (second compound 0.00316 µM): 6.95
- pIC50 (second compound 0.01 µM): 7.17
- pIC50 (second compound 0.0316 µM): 7.16
- pIC50 (second compound 0.1 µM): 7.13
- pIC50 (second compound 0.316 µM): 7.12
- pIC50 (second compound 1 µM): 7.29
- viability, T/C (second compound 0.00316 µM, first compound 0.00316 µM): 81.4%
- viability, T/C (second compound 0.00316 µM, first compound 0.01 µM): 62.2%
- viability, T/C (second compound 0.00316 µM, first compound 0.0316 µM): 60.6%
- viability, T/C (second compound 0.00316 µM, first compound 0.1 µM): 55.5%
- viability, T/C (second compound 0.00316 µM, first compound 0.316 µM): 41.2%
- viability, T/C (second compound 0.00316 µM, first compound 1 µM): 23.8%
- viability, T/C (second compound 0.01 µM, first compound 0.00316 µM): 83.7%
- viability, T/C (second compound 0.01 µM, first compound 0.01 µM): 67.5%
- viability, T/C (second compound 0.01 µM, first compound 0.0316 µM): 54.4%
- viability, T/C (second compound 0.01 µM, first compound 0.1 µM): 47%
- viability, T/C (second compound 0.01 µM, first compound 0.316 µM): 40.9%
- viability, T/C (second compound 0.01 µM, first compound 1 µM): 26.4%
- viability, T/C (second compound 0.0316 µM, first compound 0.00316 µM): 80.9%
- viability, T/C (second compound 0.0316 µM, first compound 0.01 µM): 63.9%
- viability, T/C (second compound 0.0316 µM, first compound 0.0316 µM): 54.4%
- viability, T/C (second compound 0.0316 µM, first compound 0.1 µM): 49.7%
- viability, T/C (second compound 0.0316 µM, first compound 0.316 µM): 41.9%
- viability, T/C (second compound 0.0316 µM, first compound 1 µM): 26.6%
- viability, T/C (second compound 0.1 µM, first compound 0.00316 µM): 87.2%
- viability, T/C (second compound 0.1 µM, first compound 0.01 µM): 61.9%
- viability, T/C (second compound 0.1 µM, first compound 0.0316 µM): 59.5%
- viability, T/C (second compound 0.1 µM, first compound 0.1 µM): 50%
- viability, T/C (second compound 0.1 µM, first compound 0.316 µM): 38.4%
- viability, T/C (second compound 0.1 µM, first compound 1 µM): 27.7%
- viability, T/C (second compound 0.316 µM, first compound 0.00316 µM): 68.9%
- viability, T/C (second compound 0.316 µM, first compound 0.01 µM): 66.6%
- viability, T/C (second compound 0.316 µM, first compound 0.0316 µM): 52.5%
- viability, T/C (second compound 0.316 µM, first compound 0.1 µM): 48.5%
- viability, T/C (second compound 0.316 µM, first compound 0.316 µM): 40.5%
- viability, T/C (second compound 0.316 µM, first compound 1 µM): 24.9%
- viability, T/C (second compound 1 µM, first compound 0.00316 µM): 77.1%
- viability, T/C (second compound 1 µM, first compound 0.01 µM): 56.4%
- viability, T/C (second compound 1 µM, first compound 0.0316 µM): 53%
- viability, T/C (second compound 1 µM, first compound 0.1 µM): 49.1%
- viability, T/C (second compound 1 µM, first compound 0.316 µM): 37.2%
- viability, T/C (second compound 1 µM, first compound 1 µM): 24.3%

SMILES: Cc1c(S(C)(=O)=O)c(-c2cc(F)cc(N3CCN(c4ccc(NS(=O)(=O)c5ccc(NC(CCN6CCC(C(=O)OCCCP(=O)(O)O)CC6)CSc6ccccc6)c(S(=O)(=O)C(F)(F)F)c5)cc4)CC3)c2)c(-c2ccc(Cl)cc2)n1C(C)C (stereo not drawn)
- viability, T/C (compound 0.0316 µM): 77.2% [middle of 7 runs]
- viability, T/C (compound 0.1 µM): 71.5% [middle of 7 runs]
- viability, T/C (compound 0.316 µM): 54% [middle of 7 runs]
- viability, T/C (compound 1 µM): 37.2% [middle of 7 runs]
- viability, T/C (compound 3.16 µM): 23.6% [middle of 7 runs]
- viability, T/C (compound 10 µM): 18.2% [middle of 7 runs]
- IC50 (compound alone, run of 11/07/2022): 412 nM [middle of 7 runs]
